Experimental data: patent US20010001101A1, “Phenanthroline derivatives” (Zeneca Limited, priority 1997, published 2001)

Columns and labels:
[1] = system: granulation tissue in wound chamber; test: in vivo wound chamber model; parameters: species or system rat; conditions: injected into chamber daily, day 7-14 treatment; for response vs control in vivo at 0.01 mg / response vs control in vivo at 0.05 mg: Rattus norvegicus, read-out: Mean Collagen content (% of Control) On Day 14
Method: (e) An in vivo wound chamber model involving the measurement of histological changes in granulation tissue. The test compounds were tested in rats according to the procedures generally described in Schilling et al., Surgery 46(4):702-710 (1959), Hunt et al., Am. J. Surgery 114:302-307 (1967), and Grotendorst et al., J. Clin Inves. 76:2323-2329 (1985). More specifically, stainless wire mesh cylinders were implanted subcutaneously under the back skin of rats (two chambers per animal). The compounds of the present invention were then dissolved in DMSO and injected into each chamber on a daily basis at various concentrations from either day 0-14 or day 7-14. On day 14, the chambers were collected and the granulation tissues contained within the chambers were collected for biochemical (collagen content) or histological evaluation.
Following the in vivo wound chamber model described above, fourteen of the claimed compounds tested to determine the effectiveness of the claimed compounds in inhibiting collagen deposition in the wound chamber.

dermal incisional wound = test: dermal wound healing, rat incisional model; format: in vivo; conditions: compared to control
Method: FIG. 6 illustrates the tensile strength on dermal incisional wound on day 7 after oral treatment of Compound 3 and Compound 12.
FIG. 7 illustrates the tensile strength of incisional wound after local injections of Compound 12.
(§1) The effectiveness of the compounds in dermal wound healing was tested using two wound healing models—rat punch model and rat incisional model—as described above.

dermal punch wound = test: dermal wound healing, rat punch model; format: in vivo; conditions: compared to control
Method: FIG. 5 illustrates wound area after treatment of Compound 3 in the dermal punch model.
as §1

| SMILES | melting point | response vs control in vivo at 0.01 mg ([1]; 10 μg dosage) | response vs control in vivo at 0.05 mg ([1]; 50 μg dosage) | further results |
| --- | --- | --- | --- | --- |
| CCOC(=O)c1cnc2c3c(ccc2c1Cl)C(=O)C(C(C)=O)C=N3 (centres unmarked) [Example X, 3-acetyl-7-chloro-8-ethoxycarbonyl-4-oxo-3,4-dihydro-1,10-phenanthroline] | 288 to 290 °C | – | – | – |
| Cc1cc2cc(C(=O)N(C)Cc3ccccc3)cnc2c2c1C(=O)C(C(=O)O)C=N2 (centres unmarked) [Compound 5, 3-carboxy-8-(N-benzyl-N-methylcarbamoyl)-5-methyl-4-oxo-3,4-dihydro-1,10-phenanthroline] | – | 99.1% | 80.9% | – |
| COCCOCCOC(=O)C1C=Nc2c(ccc3cccnc23)C1=O (centres unmarked) [Compound 8, 3-[2-(2-methoxyethoxy)ethoxycarbonyl]-4-oxo-3,4-dihydro-1,10-phenanthroline] | 164 to 165 °C | 114% | 92.5% | – |
| O=C1c2ccc3cccnc3c2N=CC1S(=O)(=O)CC(F)(F)F (centres unmarked) [Example VI, 3-(2,2,2-trifluoroethyl-sulfonyl)-4-oxo-3,4-dihydro-1,10-phenanthroline] | 272 to 274 °C | – | – | – |
| CCOC(=O)C1C=Nc2c(c(OC)cc3cccnc23)C1=O (centres unmarked) [Compound 14, 3-ethoxycarbonyl-4-oxo-5-methoxy-3,4-dihydro-1,10-phenanthroline] | – | 72.2% | 70.3% | tensile strength of wound (dermal incisional wound): reduced tensil strength; healing time (dermal punch wound): increased healing time |
| O=C1c2ccc3cc(C(=O)N4CCN(Cc5ccccc5)CC4)cnc3c2N=CC1[N+](=O)[O-] (centres unmarked) [Compound 10, 3-nitro-8-(4-benzylpiperazine-ylcarbonyl)-4-oxo-3,4-dihydro-1,10-phenanthroline] | – | – | – | Mean Collagen content (% of Control) On Day 14 ([1]; 10 μg dosage): 94.81 % of Control; Mean Collagen content (% of Control) On Day 14 ([1]; 50 μg dosage): 76.54 % of Control |
| CN(Cc1ccccc1)C(=O)c1cnc2c3c(c(F)cc2c1)C(=O)C(C#N)C=N3 (centres unmarked) [Example IX, 8-(N-benzyl-N-methylcarbamoyl)-3-cyano-5-fluoro-4-oxo-3,4-dihydro-1,10-phenanthroline] | 267 to 269 °C | – | – | – |
| CCCN(CC)C(=O)c1cnc2c3c(ccc2c1)C(=O)C([N+](=O)[O-])C=N3 (centres unmarked) [Compound 6, 3-nitro-8-(N-ethyl-N-propylcarbamoyl)-4-oxo-3,4-dihydro-1,10-phenanthroline] | – | 58.8% | 51.1% | – |
| N#CC1C=Nc2c(ccc3cccnc23)C1=O (centres unmarked) [Compound 1, 3-cyano-4-oxo-3,4-dihydro-1,10-phenanthroline] | – | 110% | 112% | – |
| CCOC(=O)C1C=Nc2c(ccc3c(N(C)C)c(C(=O)N(C)Cc4ccccc4)cnc23)C1=O (centres unmarked) [Example XV, 8-(N-benzyl-N-methylcarbamoyl)-7-dimethylamino-3-ethoxy-carbonyl-4-oxo-3,4-dihydro-1,10-phenanthroline] | 169 to 170 °C | – | – | – |
| CN(Cc1ccccc1)C(=O)c1cnc2c3c(ccc2c1)C(=O)C(C#N)C=N3 (centres unmarked) [Compound 4, 3-cyano-8-(N-benzyl-N-methylcarbamoyl)-4-oxo-3,4-dihydro-1,10-phenanthroline] | – | 81.1% | 66% | – |
| O=C(O)C1C=Nc2c(cc(Cl)c3cccnc23)C1=O (centres unmarked) [Compound 9, 3-carboxy-6-chloro-4-oxo-3,4-dihydro-1,10-phenanthroline] | – | 80.3% | 79.9% | – |
| O=C1c2ccc3cccnc3c2N=CC1S(=O)(=O)C(F)(F)F (centres unmarked) [Compound 11, 3-trifluoromethylsulfonyl-4-oxo-3,4-dihydro-1,10-phenanthroline] | – | 90.8% | 80.8% | – |
| CN(Cc1ccc(F)cc1)C(=O)c1cnc2c3c(ccc2c1)C(=O)C([N+](=O)[O-])C=N3 (centres unmarked) [Example VII, 8-[N-(4-fluorobenzyl)-N-methylcarbamoyl]-3-nitro-4-oxo-3,4-dihydro-1,10-phenanthroline] | 294 to 296 °C | – | – | – |
| O=C(O)C1C=Nc2c(ccc3cc(C(=O)N4CCc5ccccc5C4)cnc23)C1=O (centres unmarked) [Example XIV, 3-carboxy-4-oxo-8-(1,2,3,4-tetrahydroisoquinolin-2-ylcarbonyl)-3,4-dihydro-1,10-phenanthroline] | 171 to 182 °C | – | – | – |
| CN(Cc1ccc(F)cc1F)C(=O)c1cnc2c3c(ccc2c1)C(=O)C(C(=O)O)C=N3 (centres unmarked) [Compound 3, 3-carboxy-8-(N-methyl-N-{2,4-difluorobenzyl}carbamoyl)-4-oxo-3,4-dihydro-1,10-phenanthroline] | – | 108% | 79.8% | – |
| O=C(O)C1C=Nc2c(ccc3cc(O)cnc23)C1=O (centres unmarked) [Compound 7, 3-carboxy-8-hydroxy-4-oxo-3,4-dihydro-1,10-phenanthroline] | – | 81.9% | 74.5% | – |
| O=C(O)C1C=Nc2c(c(Cl)cc3cccnc23)C1=O (centres unmarked) [Compound 2, 5-chloro-3-carboxy-4-oxo-3,4-dihydro-1,10-phenanthroline] | – | 91.7% | 82.7% | – |
| O=C(OCCN1CCOCC1)C1C=Nc2c(ccc3cccnc23)C1=O (centres unmarked) [Compound 13, 3-(2-{morpholino}ethoxycarbonyl)-4-oxo-3,4-dihydro-1,10-phenanthroline] | – | 95.5% | 84.3% | – |
